Patent publication US20090163475A1, “CRYSTALLINE FORM OF BENZAZEPINIUM MALEATE DERIVATIVE” (priority 2005, published 2009)

Assays:
[1] = solid-state stability with respect to hygroscopicity / humidity; assay type: physicochemical
dopamine D3 receptor = dopamine D3 receptor (Homo sapiens, UniProt P35462); experiment: affinity for dopamine D3 receptors; assay type: binding
dopamine D2 receptor = dopamine D2 receptor (Homo sapiens, UniProt P14416); experiment: affinity for dopamine D2 receptors; assay type: binding
Sequence of dopamine D2 receptor (P14416 whole entry): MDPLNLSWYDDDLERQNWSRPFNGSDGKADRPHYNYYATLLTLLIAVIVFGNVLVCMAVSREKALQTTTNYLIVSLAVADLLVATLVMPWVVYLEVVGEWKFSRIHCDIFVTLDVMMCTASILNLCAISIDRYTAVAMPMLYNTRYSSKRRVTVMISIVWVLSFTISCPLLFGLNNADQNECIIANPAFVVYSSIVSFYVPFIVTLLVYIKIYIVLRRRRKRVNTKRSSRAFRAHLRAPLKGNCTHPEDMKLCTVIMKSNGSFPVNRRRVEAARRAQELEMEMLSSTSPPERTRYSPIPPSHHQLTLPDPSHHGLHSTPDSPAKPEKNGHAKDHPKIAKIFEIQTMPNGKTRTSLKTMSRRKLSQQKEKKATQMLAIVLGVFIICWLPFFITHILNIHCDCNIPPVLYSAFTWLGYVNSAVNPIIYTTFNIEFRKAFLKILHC

[2] = molecular target: T1, serotonin 5-HT2C receptor (Homo sapiens, UniProt P28335); experiment: antagonist affinity for serotonin 5-HT2C receptor; assay type: binding
T1 sequence (P28335 33-458): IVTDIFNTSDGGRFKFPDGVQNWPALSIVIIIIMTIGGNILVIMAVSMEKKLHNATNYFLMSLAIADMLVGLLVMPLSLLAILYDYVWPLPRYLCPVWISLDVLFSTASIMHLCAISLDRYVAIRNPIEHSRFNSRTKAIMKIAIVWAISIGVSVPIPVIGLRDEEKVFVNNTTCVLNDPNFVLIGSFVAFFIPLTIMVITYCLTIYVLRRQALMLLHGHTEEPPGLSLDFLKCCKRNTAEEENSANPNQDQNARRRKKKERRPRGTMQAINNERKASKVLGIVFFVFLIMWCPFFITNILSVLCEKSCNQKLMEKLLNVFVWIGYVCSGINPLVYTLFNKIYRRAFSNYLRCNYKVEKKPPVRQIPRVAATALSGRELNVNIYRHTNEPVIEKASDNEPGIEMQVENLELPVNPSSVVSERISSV

serotonin 5-HT6 receptor = serotonin 5-HT6 receptor (Homo sapiens, UniProt P50406); experiment: antagonist affinity for serotonin 5-HT6 receptor; assay type: binding
Sequence of serotonin 5-HT6 receptor (P50406 whole entry): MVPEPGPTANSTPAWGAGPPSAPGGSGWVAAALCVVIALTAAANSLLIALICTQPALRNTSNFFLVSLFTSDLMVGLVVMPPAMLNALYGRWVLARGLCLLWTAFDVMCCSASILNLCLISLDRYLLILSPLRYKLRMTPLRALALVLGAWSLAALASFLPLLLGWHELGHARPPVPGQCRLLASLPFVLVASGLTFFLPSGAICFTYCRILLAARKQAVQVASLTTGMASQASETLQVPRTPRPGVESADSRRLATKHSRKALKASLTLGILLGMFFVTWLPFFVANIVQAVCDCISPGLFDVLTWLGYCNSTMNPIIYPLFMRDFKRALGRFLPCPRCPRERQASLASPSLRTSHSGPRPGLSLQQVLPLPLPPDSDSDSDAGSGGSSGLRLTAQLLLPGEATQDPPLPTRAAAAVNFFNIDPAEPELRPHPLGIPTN

Sequence of dopamine D3 receptor (P35462 whole entry, species assumed): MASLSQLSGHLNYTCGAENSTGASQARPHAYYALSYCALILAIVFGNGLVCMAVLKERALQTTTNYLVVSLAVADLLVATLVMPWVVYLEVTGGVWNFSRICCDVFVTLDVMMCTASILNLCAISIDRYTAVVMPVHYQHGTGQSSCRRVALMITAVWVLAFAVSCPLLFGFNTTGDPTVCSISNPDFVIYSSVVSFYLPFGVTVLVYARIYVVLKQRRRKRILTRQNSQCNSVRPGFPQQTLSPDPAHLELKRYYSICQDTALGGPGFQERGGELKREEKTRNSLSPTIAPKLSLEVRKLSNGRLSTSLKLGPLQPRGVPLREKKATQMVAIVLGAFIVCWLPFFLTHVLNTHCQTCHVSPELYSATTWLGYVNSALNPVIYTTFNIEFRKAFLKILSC

SMILES | stability with respect to hygroscopicity and loss of water [1] | changes when exposed to very high humidity ([1]; very high humidity) | affinity for dopamine D3 receptor (dopamine D3 receptor) | affinity for dopamine D3 relative to D2 receptors (dopamine D3 receptor; D3 versus D2) | affinity for dopamine D2 receptor (dopamine D2 receptor) | antagonist affinity for serotonin 5-HT2C receptor [2] | antagonist affinity for serotonin 5-HT6 receptor (serotonin 5-HT6 receptor)
COc1cc2c(cc1S(=O)(=O)c1ccc(OCc3ccc(Cl)cc3)cc1)CCN(C)CC2.O=C(O)/C=C\C(=O)O [Form 2 maleate anhydrate, 7-[4-(4-Chlorobenzyloxy)benzenesulfonyl]-8-methoxy-3-methyl-2,3,4,5-tetrahydro-1H-3-benzazepinium Maleate] | particular stability | reversible changes |  |  |  |  | 
COc1cc2c(cc1S(=O)(=O)c1ccc(OCc3ccc(Cl)cc3)cc1)CCN(C)CC2.O=C(O)/C=C\C(=O)O [Form 2 salt, 7-[4-(4-Chlorobenzyloxy)benzenesulfonyl]-8-methoxy-3-methyl-2,3,4,5-tetrahydro-1H-3-benzazepinium maleate] |  |  | exhibit affinity | greater affinity for dopamine D3 than for D2 receptors | exhibit affinity | antagonist affinity | antagonist affinity
